# Molecular target: T1, PKC isoenzyme ζ (Homo sapiens, UniProt Q05513)
# T1 construct: made in house; host or cells: baculovirus-insect cell expression system
# T1 sequence (Q05513 1-592): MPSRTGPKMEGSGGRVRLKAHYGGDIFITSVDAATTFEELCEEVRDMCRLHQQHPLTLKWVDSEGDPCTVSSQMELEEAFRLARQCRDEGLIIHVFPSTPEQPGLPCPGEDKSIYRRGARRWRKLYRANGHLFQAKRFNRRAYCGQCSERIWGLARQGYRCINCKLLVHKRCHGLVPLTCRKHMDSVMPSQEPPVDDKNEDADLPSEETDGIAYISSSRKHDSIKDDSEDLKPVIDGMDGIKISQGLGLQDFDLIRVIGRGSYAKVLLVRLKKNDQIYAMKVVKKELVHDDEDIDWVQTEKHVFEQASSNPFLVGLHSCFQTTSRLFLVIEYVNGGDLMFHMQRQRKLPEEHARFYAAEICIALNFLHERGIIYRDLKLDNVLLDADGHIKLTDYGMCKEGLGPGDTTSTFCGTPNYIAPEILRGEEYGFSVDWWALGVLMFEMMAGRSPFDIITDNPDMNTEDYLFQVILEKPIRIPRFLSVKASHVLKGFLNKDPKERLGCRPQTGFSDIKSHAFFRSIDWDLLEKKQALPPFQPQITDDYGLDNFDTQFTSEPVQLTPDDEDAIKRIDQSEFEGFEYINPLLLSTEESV
# Test: Protein kinase C inhibition assay, PKC isoenzyme ζ
# Format: biochemical
# Settings: IC50 PKC .zeta.
# Procedure: A protein kinase C (PKC) assay is designed to duplicate the in vivo conditions required for protein kinase C function. Therefore, pH, salt and cofactor concentrations are similar to physiologic levels. Either lysine rich histone H1 (H1) or Myelin basic protein (Mbp) are used in the assay as the phosphorylation acceptor-protein because they are readily available and serve as good substrates for protein kinase C. Enzyme was prepared from baculovirus-insect cell expression systems.
# In the screening assay, phosphatidylserine (PS) and DAG were co-sonicated to form unilamellar and multilamellar vesicles. The concentration of lipids in the assay were suboptimal to maximize the detection potential of the assay for inhibitors or activators. Potential effector compounds were added to the assay in dimethylsulfoxide at four concentrations to give final inhibitor concentrations of 1, 10, 50, and 150 μM, respectively.
# The assay was started with the addition of enzyme and stopped after 10 min by the addition of 25% trichloroacetic acid (TCA) and 1.0 mg/ml bovine serum albumin (BSA). The radioactive histone product was retained and washed on glass fiber filters that allow the unreacted P-ATP to pass through. The amount of phosphorylation was determined by measuring radioactivity with a scintillation counter. Controls were included in every assay to measure background activity in the absence of enzyme, activity in the absence of lipids, and the maximum enzyme activity with saturating levels of the activator lipids.
# Results of the protein kinase C assay are shown in Table 4 in columns labeled α, βII, γ, δ, ε, and .zeta. which represent various PKC isoenzymes. Results are show as IC50, which is the concentration of test compound needed to inhibit 50% of the protein kinase C activity in controls.
row,Structure (SMILES),IC50
1,O=C1C(Nc2ccc(S(=O)(=O)NCCNc3ccc([N+](=O)[O-])cn3)cc2)=CC(=Nc2ccc(S(=O)(=O)NCCNc3ccc([N+](=O)[O-])cn3)cc2)c2ccccc21 [Compound 3ac],> 150 µM

# Same assay, conditions: read-out: IC50 PKC .zeta.
row,Structure (SMILES),IC50
1,Cc1cc(C)nc(NS(=O)(=O)c2cccc(N=C3C=C(Nc4cccc(S(=O)(=O)Nc5cc(C)cc(C)n5)c4)C(=O)c4ccccc43)c2)c1 [Compound 3ae],> 150 µM
2,COc1cc(NS(=O)(=O)c2ccc(N=C3C=C(Nc4ccc(S(=O)(=O)Nc5cc(OC)cc(OC)c5)cc4)C(=O)c4ccccc43)cc2)cc(OC)c1 [Compound 3af],> 150 µM
3,Cc1cc(C)nc(NS(=O)(=O)c2cc(N=C3C=C(Nc4ccc(C)c(S(=O)(=O)Nc5cc(C)cc(C)n5)c4)C(=O)c4ccccc43)ccc2C)c1 [Compound 3ag],28 µM
4,Cc1cc(C)nc(NC(=O)c2ccc(N=C3C=C(Nc4ccc(C(=O)Nc5cc(C)cc(C)n5)cc4)C(=O)c4ccccc43)cc2)c1 [Compound 3ah],> 150 µM
5,Cc1cc(C)nc(NC(=O)c2ccc(N=C3C=C(Nc4ccc(C(=O)Nc5nc(C)cc(C)n5)cc4)C(=O)c4ccccc43)cc2)n1 [Compound 3ai],> 150 µM
6,O=C1C(Nc2ccc(S(=O)(=O)Nc3ccccn3)cc2)=CC(=Nc2ccc(S(=O)(=O)Nc3ccccn3)cc2)c2ccccc21 [Compound 3i],> 150 µM
7,COc1ccc(NS(=O)(=O)c2ccc(N=C3C=C(Nc4ccc(S(=O)(=O)Nc5ccc(OC)nn5)cc4)C(=O)c4ccccc43)cc2)nn1 [Compound 3j],> 150 µM
8,O=C1C(Nc2ccc(S(=O)(=O)Nc3ccc(Cl)nn3)cc2)=CC(=Nc2ccc(S(=O)(=O)Nc3ccc(Cl)nn3)cc2)c2ccccc21 [Compound 3l],28 µM
9,O=C1C(Nc2ccc(S(=O)(=O)Nc3cnc4ccccc4n3)cc2)=CC(=Nc2ccc(S(=O)(=O)Nc3cnc4ccccc4n3)cc2)c2ccccc21 [Compound 3m],28 µM
10,O=C1C(Nc2ccc(S(=O)(=O)NCc3ccccn3)cc2)=CC(=Nc2ccc(S(=O)(=O)NCc3ccccn3)cc2)c2ccccc21 [Compound 3n],> 150 µM
11,Cc1cc(C)nc(NS(=O)(=O)c2cc(N=C3C=C(Nc4ccc(C)c(S(=O)(=O)Nc5cc(C)cc(C)n5)c4)C(=O)c4ccccc43)ccc2C)c1 [Compound 6ag],> 150 µM
12,Cc1cc(C)nc(NS(=O)(=O)c2ccc(N=C3C=C(Nc4ccc(S(=O)(=O)Nc5nc(C)cc(C)n5)cc4)C(=O)c4ccccc43)cc2)n1 [Compound 6c],132 µM
13,Cc1nnc(NS(=O)(=O)c2ccc(N=C3C=C(Nc4ccc(S(=O)(=O)Nc5nnc(C)s5)cc4)C(=O)c4ccccc43)cc2)s1 [Compound 6e],20 µM
14,Cc1ccnc(NS(=O)(=O)c2ccc(N=C3C=C(Nc4ccc(S(=O)(=O)Nc5nccc(C)n5)cc4)C(=O)c4ccccc43)cc2)n1 [Compound 6f],35 µM
15,COc1cc(NS(=O)(=O)c2ccc(N=C3C=C(Nc4ccc(S(=O)(=O)Nc5cc(OC)nc(OC)n5)cc4)C(=O)c4ccccc43)cc2)nc(OC)n1 [Compound 6g],28 µM
16,COc1cnc(NS(=O)(=O)c2ccc(N=C3C=C(Nc4ccc(S(=O)(=O)Nc5ncc(OC)cn5)cc4)C(=O)c4ccccc43)cc2)nc1 [Compound 6h],47 µM
17,COc1ccc(NS(=O)(=O)c2ccc(N=C3C=C(Nc4ccc(S(=O)(=O)Nc5ccc(OC)nn5)cc4)C(=O)c4ccccc43)cc2)nn1 [Compound 6j],49 µM
18,O=C1C(Nc2ccc(S(=O)(=O)Nc3ccc(Cl)nn3)cc2)=CC(=Nc2ccc(S(=O)(=O)Nc3ccc(Cl)nn3)cc2)c2ccccc21 [Compound 6l],9 µM
19,O=C1C(Nc2ccc(S(=O)(=O)Nc3cnc4ccccc4n3)cc2)=CC(=Nc2ccc(S(=O)(=O)Nc3cnc4ccccc4n3)cc2)c2ccccc21 [Compound 6m],9 µM

# From patent US5292737A, “N,N'-bis(sulfonamido)-2-amino-4-iminonaphthalen-1-ones and N,N'-bis(amido)-2-amino-4-iminonaphthalen-1-ones” (Sphinx Pharmaceuticals Corporation, priority 1992, dated 1994)
